The target in this test is T1, human GluN1/GluN2B NMDA receptors (Homo sapiens, UniProt Q05586+Q13224).
T1 construct: expressed in transfected cells
Put plainly: Calcium flux (FLIPR) assay on cloned human NR1/GluN2B ion channels expressed in mammalian cells, standard assay. In kind it is cell-based. Particulars: glutamate ~EC40 and 10 μM glycine, stable cell line with Tet-On induced expression. In short, it runs like this:
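Tet-On-induced stable mammalian line loaded with Calcium 5 dye (0.5 mM MgCl2 loading buffer), then assayed in pH 7.4 buffer with 137 mM NaCl, 4 mM KCl, 2 mM CaCl2. Compound was added for 5 min, then glutamate (~EC40) plus 10 µM glycine for 5 min. FLIPR fluorescence was normalized to control wells.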
Background: Calcium flux is commonly read through the fluorescence of an indicator in the cells.

A word on the pIC50: it is −log10 of the IC50, conventionally taken in molar units.

The structures appear in SMILES notation. pIC50: −log10 of the molar value.

T1 sequence (Q13224 27-1484, other chains not shown): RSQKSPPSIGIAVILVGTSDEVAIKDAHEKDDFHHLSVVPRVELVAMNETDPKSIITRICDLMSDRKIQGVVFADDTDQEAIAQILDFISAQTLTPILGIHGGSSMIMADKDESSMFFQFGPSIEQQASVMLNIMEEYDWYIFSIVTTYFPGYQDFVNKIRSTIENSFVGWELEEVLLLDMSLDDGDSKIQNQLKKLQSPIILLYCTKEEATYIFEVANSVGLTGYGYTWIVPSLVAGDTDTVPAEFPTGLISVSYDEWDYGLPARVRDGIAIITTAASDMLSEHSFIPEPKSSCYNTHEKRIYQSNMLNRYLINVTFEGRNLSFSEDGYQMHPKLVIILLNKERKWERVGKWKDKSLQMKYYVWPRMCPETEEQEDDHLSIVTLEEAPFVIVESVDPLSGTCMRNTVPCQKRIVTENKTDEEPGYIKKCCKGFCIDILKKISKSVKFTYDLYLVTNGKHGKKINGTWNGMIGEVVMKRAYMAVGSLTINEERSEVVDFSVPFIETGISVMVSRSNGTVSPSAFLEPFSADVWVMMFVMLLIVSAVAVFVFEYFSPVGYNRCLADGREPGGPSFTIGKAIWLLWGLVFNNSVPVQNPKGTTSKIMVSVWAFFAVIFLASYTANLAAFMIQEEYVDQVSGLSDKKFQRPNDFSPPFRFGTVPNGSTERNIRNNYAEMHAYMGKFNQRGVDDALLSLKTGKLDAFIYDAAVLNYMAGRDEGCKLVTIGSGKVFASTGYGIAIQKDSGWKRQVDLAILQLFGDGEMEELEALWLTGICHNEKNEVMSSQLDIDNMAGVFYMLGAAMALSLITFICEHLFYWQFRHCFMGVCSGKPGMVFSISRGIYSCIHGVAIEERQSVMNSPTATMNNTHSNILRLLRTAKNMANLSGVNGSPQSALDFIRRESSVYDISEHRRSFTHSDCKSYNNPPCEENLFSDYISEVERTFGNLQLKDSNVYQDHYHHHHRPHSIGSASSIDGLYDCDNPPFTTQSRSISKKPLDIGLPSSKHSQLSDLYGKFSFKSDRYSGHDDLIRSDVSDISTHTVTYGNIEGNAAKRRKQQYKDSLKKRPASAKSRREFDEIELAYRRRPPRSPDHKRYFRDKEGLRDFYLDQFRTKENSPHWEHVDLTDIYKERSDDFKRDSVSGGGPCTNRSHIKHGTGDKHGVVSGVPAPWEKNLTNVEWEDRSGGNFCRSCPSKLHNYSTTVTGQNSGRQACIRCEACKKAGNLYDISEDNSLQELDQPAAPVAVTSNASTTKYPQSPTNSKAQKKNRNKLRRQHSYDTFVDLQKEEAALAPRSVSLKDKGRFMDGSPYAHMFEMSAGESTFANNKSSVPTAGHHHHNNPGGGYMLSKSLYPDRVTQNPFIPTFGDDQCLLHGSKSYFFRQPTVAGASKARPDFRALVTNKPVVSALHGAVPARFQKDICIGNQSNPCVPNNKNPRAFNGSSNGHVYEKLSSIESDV

Consider `O=C(Cn1ncc2ncc(-c3ccc(F)c(C(F)F)c3)cc21)c1cccs1` [Example 137, 2-[6-[3-(Difluoromethyl)-4-fluoro-phenyl]pyrazolo[4,3-b]pyridin-1-yl]-1-(2-thienyl)ethanone], for which the negative logarithm of the IC50 (pIC50) was 7.44.
Next, `CC(C)C(O)Cn1ncc2ncc(-c3cc(F)c(F)c(F)c3)cc21` (racemic) [Example 97, (RS)-3-Methyl-1-[6-(3,4,5-trifluorophenyl)pyrazolo[4,3-b]pyridin-1-yl]butan-2-ol]: 6.23; `CC(C)C(=O)Cn1ncc2ncc(-c3cccc(C(F)(F)F)c3)cc21` [Example 2, 3-Methyl-1-[6-[3-(trifluoromethyl)phenyl]pyrazolo[4,3-b]pyridin-1-yl]butan-2-one]: 7.21; `CC(C)C(=O)Cn1ncc2ncc(-c3ccc(F)cc3)cc21` [Example 45, 1-[6-(4-Fluorophenyl)pyrazolo[4,3-b]pyridin-1-yl]-3-methyl-butan-2-one]: 7.44.
`O=C(Cn1ncc2ncc(-c3ccc(F)c(C(F)F)c3)cc21)c1ccccn1` [Example 14, 2-[6-[3-(Difluoromethyl)-4-fluoro-phenyl]pyrazolo[4,3-b]pyridin-1-yl]-1-(2-pyridyl)ethanone]: the negative logarithm of the IC50 (pIC50) is 6.95.
To `CCC(O)Cn1ncc2ncc(-c3ccc(Cl)c(OC(F)F)c3)cc21` (racemic) [Example 93, (RS)-1-[6-[4-Chloro-3-(difluoromethoxy)phenyl]pyrazolo[4,3-b]pyridin-1-yl]butan-2-ol] belongs 6.38; to `ON=C(Cn1ncc2ncc(-c3ccc(F)c(C(F)F)c3)cc21)C1CC1` (mixture of isomers) [Example 107, (E/Z)-1-Cyclopropyl-2-[6-[3-(difluoromethyl)-4-fluoro-phenyl]pyrazolo[4,3-b]pyridin-1-yl]ethanone oxime], 7.19; to `CC(C)C(Cn1ncc2ncc(-c3cccc(C(F)(F)F)c3)cc21)=NO` (mixture of isomers) [Example 6, (E/Z)-3-Methyl-1-[6-[3-(trifluoromethyl)phenyl]pyrazolo[4,3-b]pyridin-1-yl]butan-2-one oxime], 5.61.
As for `O=C(Cn1ncc2ncc(-c3ccccc3F)cc21)C1CC1` [Example 58, 1-Cyclopropyl-2-[6-(2-fluorophenyl)pyrazolo[4,3-b]pyridin-1-yl]ethanone], the negative-log IC50 (pIC50) was 6.83.
To `Fc1ccc(-c2cnc3cnn(CC(F)(F)C4CC4)c3c2)cc1OC(F)F` [Example 109, 1-(2-Cyclopropyl-2,2-difluoro-ethyl)-6-[3-(difluoromethoxy)-4-fluoro-phenyl]pyrazolo[4,3-b]pyridine] belongs 7.16; to `COC(Cn1ncc2ncc(-c3cc(F)c(F)c(F)c3)cc21)C1CC1` (racemic) [Example 11, (R/S)-1-(2-Cyclopropyl-2-methoxy-ethyl)-6-(3,4,5-trifluorophenyl)pyrazolo[4,3-b]pyridine], 5.75.
`CCC(=O)Cn1ncc2ncc(-c3cccc(C(F)F)c3)cc21` [Example 30, 1-[6-[3-(Difluoromethyl)phenyl]pyrazolo[4,3-b]pyridin-1-yl]butan-2-one]: the pIC50 was 7.57.
Next, `O=C(Cn1ncc2ncc(-c3ccc(F)c(C(F)F)c3)cc21)c1ccc(F)cn1` [Example 15, 2-(6-(3-(Difluoromethyl)-4-fluorophenyl)-1H-pyrazolo[4,3-b]pyridin-1-yl)-1-(5-fluoropyridin-2-yl)ethan-1-one]: 6.80; `CCC(=O)Cn1nc(F)c2ncc(-c3ccc(F)c(F)c3)cc21` [Example 35, 1-[6-(3,4-Difluorophenyl)-3-fluoro-pyrazolo[4,3-b]pyridin-1-yl]butan-2-one]: 8.30.
To `CC[S+]([O-])Cn1ncc2ncc(-c3cccc(C(F)(F)F)c3)cc21` (racemic) [Example 81, (RS)-1-(Ethylsulfinylmethyl)-6-[3-(trifluoromethyl)phenyl]pyrazolo[4,3-b]pyridine] belongs 6.89.
With `CCC(=O)Cn1ncc2ncc(-c3ccc(Cl)s3)cc21` [Example 27, 1-[6-(5-Chloro-2-thienyl)pyrazolo[4,3-b]pyridin-1-yl]butan-2-one], the pIC50 is 7.89.
Next, `O=C(Cn1ncc2ncc(-c3ccc(Cl)s3)cc21)C1CC1` [Example 55, 2-[6-(5-Chloro-2-thienyl)pyrazolo[4,3-b]pyridin-1-yl]-1-cyclopropyl-ethanone]: 8.10; `O=C1NCC(Cn2ncc3ncc(-c4ccc(F)c(C(F)F)c4)cc32)O1` (racemic) [Example 20, (RS)-5-[[6-[3-(Difluoromethyl)-4-fluoro-phenyl]pyrazolo[4,3-b]pyridin-1-yl]methyl]oxazolidin-2-one]: 6.71.
On to `CC[S+]([O-])Cn1ncc2ncc(-c3ccc(F)c(C(F)F)c3)cc21` (racemic) [Example 83, (RS)-6-(3-(Difluoromethyl)-4-fluorophenyl)-1-((ethylsulfinyl)methyl)-1H-pyrazolo[4,3-b]pyridine], for which the pIC50 was 7.47.
Next, `CCC(=O)Cn1ncc2ncc(-c3ccc(F)c(OC(F)F)c3)cc21` [Example 40, 1-[6-[3-(Difluoromethoxy)-4-fluoro-phenyl]pyrazolo[4,3-b]pyridin-1-yl]butan-2-one]: 7.96.
Regarding `O=C(Cn1ncc2ncc(-c3ccc(F)c(Cl)c3)cc21)C1CC1` [Example 68, 2-[6-[3-Chloro-4-fluoro-phenyl)pyrazolo[4,3-b]pyridin-1-yl]-1-cyclopropyl-ethanone], the negative-log IC50 (pIC50) was 8.15.
As to `CN1C(=O)CCC1Cn1ncc2ncc(-c3ccc(F)c(C(F)F)c3)cc21` (racemic) [Example 115, (RS)-5-[[6-[3-(Difluoromethyl)-4-fluoro-phenyl]pyrazolo[4,3-b]pyridin-1-yl]methyl]-1-methyl-pyrrolidin-2-one], the negative logarithm of the IC50 (pIC50) is below 5.52.
Next, `CC(=O)Cn1ncc2ncc(-c3ccc(Cl)c(OC(F)F)c3)cc21` [Example 26, 1-[6-[4-Chloro-3-(difluoromethoxy)phenyl]pyrazolo[4,3-b]pyridin-1-yl]propan-2-one]: 7.44.
Next, `Fc1ccc(-c2cnc3cnn(CC4CCCO4)c3c2)cc1C(F)F` (racemic) [Example 18, (RS)-6-[3-(Difluoromethyl)-4-fluoro-phenyl]-1-(tetrahydrofuran-2-ylmethyl)pyrazolo[4,3-b]pyridine]: 7.46.
For `Fc1ccc(-c2cnc3cnn(CC4CCOC4)c3c2)cc1C(F)F` (racemic) [Example 113, (RS)-6-[3-(Difluoromethyl)-4-fluoro-phenyl]-1-(tetrahydrofuran-3-ylmethyl)pyrazolo[4,3-b]pyridine], the negative logarithm of the IC50 (pIC50) was 7.64.
With `CCS(=O)(=O)Cn1ncc2ncc(-c3ccc(F)c(OC(F)F)c3)cc21` [Example 13, 6-[3-(Difluoromethoxy)-4-fluoro-phenyl]-1-(ethylsulfonylmethyl)pyrazolo[4,3-b]pyridine], the pIC50 is 5.74.
Next, `CC(C)C(=O)Cn1ncc2ncc(-c3cccc(C(F)F)c3)cc21` [Example 47, 1-[6-[3-(Difluoromethyl)phenyl]pyrazolo[4,3-b]pyridin-1-yl]-3-methyl-butan-2-one]: 7.64; `O=C1O[C@H](Cn2ncc3ncc(-c4ccc(F)c(C(F)F)c4)cc32)CN1C1CC1` [Example 135, (S)-3-Cyclopropyl-5-[[6-[3-(difluoromethyl)-4-fluoro-phenyl]pyrazolo[4,3-b]pyridin-1-yl]methyl]oxazolidin-2-one]: below 5.52; `CC1(Cn2ncc3ncc(-c4ccc(F)c(C(F)F)c4)cc32)COC1` [Example 110, 6-[3-(Difluoromethyl)-4-fluoro-phenyl]-1-[(3-methyloxetan-3-yl)methyl]pyrazolo[4,3-b]pyridine]: 5.69.
Next, `O=C(Cn1ncc2ncc(-c3cccc(OC(F)(F)F)c3)cc21)C1CC1` [Example 63, 1-Cyclopropyl-2-[6-[3-(trifluoromethoxy)phenyl]pyrazolo[4,3-b]pyridin-1-yl]ethanone]: 7.51; `CC(F)(F)c1cc(-c2cnc3cnn(CC4CNC(=O)O4)c3c2)ccc1F` (racemic) [Example 127, (RS)-5-[[6-[3-(1,1-Difluoroethyl)-4-fluoro-phenyl]pyrazolo[4,3-b]pyridin-1-yl]methyl]oxazolidin-2-one]: 6.01; `CC[S+]([O-])Cn1ncc2ncc(-c3ccc(F)c(F)c3)cc21` (racemic) [Example 82, (RS) 6-(3,4-Difluorophenyl)-1-(ethylsulfinylmethyl)pyrazolo[4,3-b]pyridine]: 6.05.
To `Cc1cc(-c2cnc3cnn(C[C@@H](O)C4CC4)c3c2)ccc1F` [Example 103, (S)-1-Cyclopropyl-2-[6-(4-fluoro-3-methyl-phenyl)pyrazolo[4,3-b]pyridin-1-yl]ethanol] belongs 6.57.
Regarding `Fc1ccc(-c2cnc3cnn(CC(F)(F)C4CC4)c3c2)cc1C(F)F` [Example 108, 1-(2-Cyclopropyl-2,2-difluoro-ethyl)-6-[3-(difluoromethyl)-4-fluoro-phenyl]pyrazolo[4,3-b]pyridine], the negative-log IC50 (pIC50) is 7.35.
As for `CCC(O)Cn1ncc2ncc(-c3ccc(F)c(C(F)F)c3)cc21` (racemic) [Example 5, (RS)-1-[6-[3-(Difluoromethyl)-4-fluoro-phenyl]pyrazolo[4,3-b]pyridin-1-yl]butan-2-ol], the pIC50 was 7.32.
`OC(Cn1ncc2ncc(-c3cc(F)c(F)c(F)c3)cc21)C1CC1` (racemic) [Example 10, (R/S)-1-Cyclopropyl-2-[6-(3,4,5-trifluorophenyl)pyrazolo[4,3-b]pyridin-1-yl]ethanol]: the pIC50 was 6.16.
To `O=C(Cn1ncc2ncc(-c3ccc(Cl)c(C(F)(F)F)c3)cc21)C1CC1` [Example 75, 2-[6-[4-Chloro-3-(trifluoromethyl)phenyl]pyrazolo[4,3-b]pyridin-1-yl]-1-cyclopropyl-ethanone] belongs 7.12.

The values above are taken from patent US11161846B2, “Substituted pyrazolo[4,3-b]pyridines and their use as GluN2B receptor modulators” (JANSSEN PHARMACEUTICA NV, priority 2019, dated 2021).
